Converted amounts (≈) assume the structure as drawn.
How the values were obtained:
[1] = Water solubility, protocol I (PBS, HPLC); type: physicochemical; conditions: Method I: PBS without CaCl₂ and MgCl₂.6H₂O
Protocol: The supernatant (2 µL) was analyzed by HPLC using the conditions specified for each compound in the Experimental Section. […] When not soluble, an additional amount of PBS (x µL) was added, sonicated, and centrifuged. When visibly soluble, the solution (2 µL) was injected to HPLC and the peak area was used for the known concentration of the sample.

[2] = test system: Candida tropicalis A25812; test: In vitro antifungal activity, serial agar dilution method (Table 1a); type: cell-based; conditions: A25812, YM agar (pH 7.0, Difco), 30°C for 2 days (yeast) or 4 days (filamentous fungi), read-out: MICs, Candida tropicalis A25812
Protocol: (§1) The inoculum size was adjusted to 10⁶ cells/ml, and a volume of approximately 0.003 ml of fungal suspension was applied to the surface of the antibiotic containing agar plates with a multiinoculator. After incubation, the lowest concentration of antibiotic causing virtually complete inhibition of fungal growth was determined as the minimum inhibitory concentration (MIC).

[3] = test system: Candida pseudotropicalis A25802; test: as above; type: cell-based; conditions: Kluyveromyces marxianus, YM agar (pH 7.0, Difco), 30°C for 2 days (yeast) or 4 days (filamentous fungi), read-out: MICs, Candida pseudotropicalis A25802
Protocol: as §1

Candida albicans A9540 [4] = test: as above; type: cell-based; conditions: A9540, YM agar (pH 7.0, Difco), 30°C for 2 days (yeast) or 4 days (filamentous fungi), read-out: MICs, Candida albicans A9540
Protocol: as §1

Candida albicans A25578 = test: as above; type: cell-based; conditions: A25578, YM agar (pH 7.0, Difco), 30°C for 2 days (yeast) or 4 days (filamentous fungi), read-out: MICs, Candida albicans A25578
Protocol: as §1

[5] = test system: Cryptococcus neoformans A15053; test: as above; type: cell-based; conditions: A15053, YM agar (pH 7.0, Difco), 30°C for 2 days (yeast) or 4 days (filamentous fungi), read-out: MICs, Cryptococcus neoformans A15053
Protocol: as §1

[6] = test system: Microsporum canis WW10218; test: as above; type: cell-based; conditions: WW10218, pH 7, read-out: MICs, Microsporum canis WW10218
Protocol: as §1

[7] = test system: Trichophyton mentagrophytes A26771; test: as above; type: cell-based; conditions: A26771, YM agar (pH 7.0, Difco), 30°C for 2 days (yeast) or 4 days (filamentous fungi), read-out: MICs, Trichophyton mentagrophytes A26771
Protocol: as §1

[8] = test system: Candida paratropicalis A25825; test: as above; type: cell-based; conditions: YM agar (pH 7.0, Difco); 30°C for 2 days (yeast) or 4 days (filamentous fungi); read-out: MICs, Candida paratropicalis A25825
Protocol: as §1

[9] = test system: Microsporum gypseum WW1107; test: as above; type: cell-based; conditions: Nannizzia gypsea, YM agar (pH 7.0, Difco), 30°C for 2 days (yeast) or 4 days (filamentous fungi), read-out: MICs, Microsporum gypseum WW1107
Protocol: as §1

[10] = test system: Saccharomyces cerevisiae A25803; test: as above; type: cell-based; conditions: YM agar (pH 7.0, Difco), 30°C for 2 days (yeast) or 4 days (filamentous fungi), read-out: MICs, Saccharomyces cerevisiae A25803
Protocol: as §1

[11] = test system: Candida tropicalis A25809; test: as above; type: cell-based; conditions: YM agar (pH 7.0, Difco), 30°C for 2 days (yeast) or 4 days (filamentous fungi), read-out: MICs, Candida tropicalis A25809
Protocol: as §1

[12] = test system: Trichophyton rubrum A26761; test: as above; type: cell-based; conditions: A26761, pH 7, read-out: MICs, Trichophyton rubrum A26761
Protocol: as §1

[13] = test system: Trichophyton mentagrophytes #4329; test: In vitro antifungal activity, serial agar dilution method (Table 1); type: cell-based; conditions: Trichophyton mentagrophytes; Sabouraud dextrose agar (pH 7.0); 28°C for 40 hours
Protocol: as §1, with “(MIC). Table 1. [table]” for “(MIC).”

[14] = test system: Petriellidium boydii IFO8078; test: as above; type: cell-based; conditions: Scedosporium boydii, IFO8078; Sabouraud dextrose agar (pH 7.0); 28°C for 40 hours
Protocol: as §1, with “(MIC). Table 1. [table]” for “(MIC).”

[15] = test system: Cryptococcus neoformans D49; test: as above; type: cell-based; conditions: Cryptococcus neoformans, D49, 40 h, pH 7, read-out: MIC, Cryptococcus neoformans D49
Protocol: as §1, with “(MIC). Table 1. [table]” for “(MIC).”

[16] = test system: Blastomyces dermatidis D40; test: as above; type: cell-based; conditions: Blastomyces, D40, 40 h, pH 7, read-out: MIC, Blastomyces dermatidis D40
Protocol: as §1, with “(MIC). Table 1. [table]” for “(MIC).”

Mucor spinosus IFO5317 = test: as above; type: cell-based; conditions: Mucor spinosus, IFO5317; Sabouraud dextrose agar (pH 7.0); 28°C for 40 hours
Protocol: as §1, with “(MIC). Table 1. [table]” for “(MIC).”

Candida albicans IAM4888 = test: as above; type: cell-based; conditions: Candida albicans, IAM4888; Sabouraud dextrose agar (pH 7.0); 28°C for 40 hours
Protocol: as §1, with “(MIC). Table 1. [table]” for “(MIC).”

[17] = test system: Fusarium moniliforme A2284; test: as above; type: cell-based; conditions: Fusarium verticillioides, A2284; Sabouraud dextrose agar (pH 7.0); 28°C for 40 hours
Protocol: as §1, with “(MIC). Table 1. [table]” for “(MIC).”

[18] = test system: Sprotricosis schenckii IFO8158; test: as above; type: cell-based; conditions: 40 h, pH 7, read-out: MIC, Sprotricosis schenckii IFO8158
Protocol: as §1, with “(MIC). Table 1. [table]” for “(MIC).”

Candida albicans A9540 [19] = test: as above; type: cell-based; conditions: Candida albicans, A9540; Sabouraud dextrose agar (pH 7.0); 28°C for 40 hours
Protocol: as §1, with “(MIC). Table 1. [table]” for “(MIC).”

[20] = test system: Aspergillus fumigatus IAM2530; test: as above; type: cell-based; conditions: Aspergillus fumigatus, IAM2530; Sabouraud dextrose agar (pH 7.0); 28°C for 40 hours
Protocol: as §1, with “(MIC). Table 1. [table]” for “(MIC).”

[21] = test system: Cryptococcus neoformans IAM4514; test: as above; type: cell-based; conditions: Cryptococcus neoformans, IAM4514; Sabouraud dextrose agar (pH 7.0); 28°C for 40 hours
Protocol: as §1, with “(MIC). Table 1. [table]” for “(MIC).”

[22] = test system: Trichophyton mentagrophytes D155; test: as above; type: cell-based; conditions: Trichophyton mentagrophytes, D155; Sabouraud dextrose agar (pH 7.0); 28°C for 40 hours
Protocol: as §1, with “(MIC). Table 1. [table]” for “(MIC).”

[23] = test system: Aspergillus fumigatus IAM2034; test: as above; type: cell-based; conditions: Aspergillus fumigatus, IAM2034; Sabouraud dextrose agar (pH 7.0); 28°C for 40 hours
Protocol: as §1, with “(MIC). Table 1. [table]” for “(MIC).”

FA21436 = test: as above; type: cell-based, Asoergukkys flavus; conditions: 40 h, pH 7, read-out: MIC, Asoergukkys flavus FA21436
Protocol: as §1, with “(MIC). Table 1. [table]” for “(MIC).”

## C=CCN(C)[C@@H]1[C@H](O[C@@H]2OC[C@@H](O)[C@H](O)[C@H]2O)[C@@H](O)[C@H](O[C@H]2c3cc(C)c(C(=O)N[C@H](C)C(=O)O)c(O)c3-c3c(cc4c(c3O)C(=O)c3cc(OC)cc(O)c3C4=O)[C@@H]2O)O[C@@H]1C [Ex. 22, N-(Allyl) pradimicin A]
[1]
  solubility: 5000 µg/mL (≈ 5680 µM)
[2]
  MIC: > 50 µg/mL
[3]
  MIC: 3.2 µg/mL (≈ 3.63 µM)
Candida albicans A9540 [4]
  MIC: > 50 µg/mL
Candida albicans A25578
  MIC: 3.2 µg/mL (≈ 3.63 µM)
[5]
  MIC: 0.4 µg/mL (≈ 0.454 µM)
[6]
  MIC: 1.6 µg/mL (≈ 1.82 µM)
[7]
  MIC: > 50 µg/mL
[8]
  MIC: > 50 µg/mL
[9]
  MIC: > 50 µg/mL

## COc1cc(O)c2c(c1)C(=O)c1c(cc3c(c1O)-c1c(cc(C)c(C(=O)N[C@H](C)C(=O)O)c1O)[C@H](O[C@@H]1O[C@H](C)[C@H](N(C)C(N)=O)[C@H](O)[C@H]1O)[C@H]3O)C2=O [Ex. 17, N-carbamyl pradimicin B]
[2]
  MIC: 6.3 µg/mL (≈ 8.38 µM)
[10]
  MIC: 1.6 µg/mL (≈ 2.13 µM)
[11]
  MIC: 1.6 µg/mL (≈ 2.13 µM)
[3]
  MIC: 1.6 µg/mL (≈ 2.13 µM)
Candida albicans A9540 [4]
  MIC: 6.3 µg/mL (≈ 8.38 µM)
Candida albicans A25578
  MIC: 3.2 µg/mL (≈ 4.26 µM)
[5]
  MIC: 6.3 µg/mL (≈ 8.38 µM)
[6]
  MIC: 25 µg/mL (≈ 33.3 µM)
[12]
  MIC: 25 µg/mL (≈ 33.3 µM)
[7]
  MIC: 25 µg/mL (≈ 33.3 µM)
[8]
  MIC: 6.3 µg/mL (≈ 8.38 µM)
[9]
  MIC: 25 µg/mL (≈ 33.3 µM)

## COc1cc(O)c2c(c1)C(=O)c1c(cc3c(c1O)-c1c(cc(C)c(C(=O)N[C@H](C)C(=O)O)c1O)[C@H](O[C@@H]1O[C@H](C)[C@H](N(C)C(=O)CN(C)C)[C@H](O)[C@H]1O)[C@H]3O)C2=O [Ex. 15, N-(N,N-dimethylglycyl) pradimicin B]
[1]
  solubility: 2000 µg/mL (≈ 2520 µM)
[2]
  MIC: 6.3 µg/mL (≈ 7.94 µM)
[10]
  MIC: 3.2 µg/mL (≈ 4.03 µM)
[11]
  MIC: 3.2 µg/mL (≈ 4.03 µM)
[3]
  MIC: 1.6 µg/mL (≈ 2.02 µM)
Candida albicans A9540 [4]
  MIC: 6.3 µg/mL (≈ 7.94 µM)
Candida albicans A25578
  MIC: 3.2 µg/mL (≈ 4.03 µM)
[5]
  MIC: 3.2 µg/mL (≈ 4.03 µM)
[6]
  MIC: 6.4 µg/mL (≈ 8.06 µM)
[12]
  MIC: 2.5 µg/mL (≈ 3.15 µM)
[7]
  MIC: 12.5 µg/mL (≈ 15.7 µM)
[8]
  MIC: 6.3 µg/mL (≈ 7.94 µM)
[9]
  MIC: 12.5 µg/mL (≈ 15.7 µM)

## COC(=O)/C=C/CN(C)[C@@H]1[C@H](O[C@@H]2OC[C@@H](O)[C@H](O)[C@H]2O)[C@@H](O)[C@H](O[C@H]2c3cc(C)c(C(=O)N[C@H](C)C(=O)O)c(O)c3-c3c(cc4c(c3O)C(=O)c3cc(OC)cc(O)c3C4=O)[C@@H]2O)O[C@@H]1C [compound 12, N-(trans-3-methoxycarbonyl-2-propenyl) pradimicin A]
[13]
  MIC: 25 µg/mL (≈ 26.6 µM)
[14]
  MIC: > 25 µg/mL
[15]
  MIC: 6.3 µg/mL (≈ 6.71 µM)
[16]
  MIC: > 25 µg/mL
Mucor spinosus IFO5317
  MIC: > 25 µg/mL
Candida albicans IAM4888
  MIC: 25 µg/mL (≈ 26.6 µM)
[17]
  MIC: > 25 µg/mL
[18]
  MIC: 12.5 µg/mL (≈ 13.3 µM)
Candida albicans A9540 [19]
  MIC: > 25 µg/mL
[20]
  MIC: 12.5 µg/mL (≈ 13.3 µM)
[21]
  MIC: 6.3 µg/mL (≈ 6.71 µM)
[22]
  MIC: 12.5 µg/mL (≈ 13.3 µM)
[23]
  MIC: 12.5 µg/mL (≈ 13.3 µM)
FA21436
  MIC: 25 µg/mL (≈ 26.6 µM)
